Experimental data from ChEMBL document CHEMBL1201862, “PubChem BioAssay data set” (2004).
Calls of active or inactive are those of the source.

Columns and labels:
Hexokinase HKDC1 = target: T1, Hexokinase HKDC1 (Homo sapiens, UniProt Q2TB90); assay: inhibition of HKDC1 glucose phosphorylation – biochemical, W721R variant, dose response (AID 504729); type: functional
T1 sequence (Q2TB90 whole entry): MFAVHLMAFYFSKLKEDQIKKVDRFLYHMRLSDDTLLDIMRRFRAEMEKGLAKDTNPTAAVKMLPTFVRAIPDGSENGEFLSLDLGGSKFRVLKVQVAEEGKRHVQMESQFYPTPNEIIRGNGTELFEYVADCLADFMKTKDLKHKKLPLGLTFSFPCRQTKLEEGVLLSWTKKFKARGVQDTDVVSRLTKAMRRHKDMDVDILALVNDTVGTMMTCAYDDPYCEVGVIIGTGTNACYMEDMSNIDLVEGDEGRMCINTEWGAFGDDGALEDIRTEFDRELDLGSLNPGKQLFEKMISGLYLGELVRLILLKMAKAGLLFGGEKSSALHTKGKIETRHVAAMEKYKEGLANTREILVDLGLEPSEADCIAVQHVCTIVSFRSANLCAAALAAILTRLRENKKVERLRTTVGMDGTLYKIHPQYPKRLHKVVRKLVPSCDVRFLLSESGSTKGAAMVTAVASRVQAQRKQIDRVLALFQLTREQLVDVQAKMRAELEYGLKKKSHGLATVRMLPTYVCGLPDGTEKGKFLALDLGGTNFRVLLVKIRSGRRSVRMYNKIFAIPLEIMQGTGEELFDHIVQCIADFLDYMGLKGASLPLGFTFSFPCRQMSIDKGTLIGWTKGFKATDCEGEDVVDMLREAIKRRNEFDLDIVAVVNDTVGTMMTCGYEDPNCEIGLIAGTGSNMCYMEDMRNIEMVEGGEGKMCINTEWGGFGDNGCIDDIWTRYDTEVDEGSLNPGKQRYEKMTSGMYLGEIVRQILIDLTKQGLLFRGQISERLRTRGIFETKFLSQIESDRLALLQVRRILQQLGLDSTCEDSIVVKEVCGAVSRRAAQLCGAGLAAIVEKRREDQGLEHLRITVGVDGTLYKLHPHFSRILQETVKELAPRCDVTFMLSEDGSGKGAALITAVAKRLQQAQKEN

[1] = target: T2, Replicative DNA helicase DnaB (Mycobacterium tuberculosis, UniProt P9WMR3); assay: DnaB intein splicing inhibitors, dose response, biochemical, cell-free fluorescence (AID 449749); type: functional
T2 sequence (P9WMR3 whole entry): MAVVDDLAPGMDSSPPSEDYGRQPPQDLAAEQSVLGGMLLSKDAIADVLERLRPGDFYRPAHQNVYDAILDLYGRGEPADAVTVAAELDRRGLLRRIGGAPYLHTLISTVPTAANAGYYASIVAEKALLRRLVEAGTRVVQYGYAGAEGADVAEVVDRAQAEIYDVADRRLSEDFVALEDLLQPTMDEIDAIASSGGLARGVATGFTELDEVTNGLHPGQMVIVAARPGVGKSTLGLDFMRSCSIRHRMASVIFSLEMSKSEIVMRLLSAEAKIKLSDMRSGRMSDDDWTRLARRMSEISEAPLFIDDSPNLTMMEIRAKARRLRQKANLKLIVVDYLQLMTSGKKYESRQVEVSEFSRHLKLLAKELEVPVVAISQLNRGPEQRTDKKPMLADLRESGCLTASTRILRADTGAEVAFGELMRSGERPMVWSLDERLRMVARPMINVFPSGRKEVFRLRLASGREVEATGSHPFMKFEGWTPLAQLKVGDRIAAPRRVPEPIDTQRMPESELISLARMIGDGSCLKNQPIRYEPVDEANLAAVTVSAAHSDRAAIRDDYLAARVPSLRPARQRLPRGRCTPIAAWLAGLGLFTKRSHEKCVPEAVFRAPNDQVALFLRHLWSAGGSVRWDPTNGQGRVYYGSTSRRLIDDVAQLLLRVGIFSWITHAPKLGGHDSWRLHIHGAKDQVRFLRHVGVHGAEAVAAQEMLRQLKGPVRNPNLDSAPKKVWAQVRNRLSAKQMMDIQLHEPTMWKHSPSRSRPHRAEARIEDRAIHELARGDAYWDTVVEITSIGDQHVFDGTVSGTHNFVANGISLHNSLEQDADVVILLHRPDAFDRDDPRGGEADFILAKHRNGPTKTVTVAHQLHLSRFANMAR

Protein RecA = target: T3, Protein RecA (Mycobacterium tuberculosis, UniProt P9WHJ3); assay: Fluorescence Cell-Free Homogeneous Dose Retest to Identify Inhibitors of RecA-Intein Splicing Activity. [Related pubchem assays (depositor defined):AID2097, AID2223, AID489010, AID492950]; type: functional
T3 sequence (P9WHJ3 whole entry): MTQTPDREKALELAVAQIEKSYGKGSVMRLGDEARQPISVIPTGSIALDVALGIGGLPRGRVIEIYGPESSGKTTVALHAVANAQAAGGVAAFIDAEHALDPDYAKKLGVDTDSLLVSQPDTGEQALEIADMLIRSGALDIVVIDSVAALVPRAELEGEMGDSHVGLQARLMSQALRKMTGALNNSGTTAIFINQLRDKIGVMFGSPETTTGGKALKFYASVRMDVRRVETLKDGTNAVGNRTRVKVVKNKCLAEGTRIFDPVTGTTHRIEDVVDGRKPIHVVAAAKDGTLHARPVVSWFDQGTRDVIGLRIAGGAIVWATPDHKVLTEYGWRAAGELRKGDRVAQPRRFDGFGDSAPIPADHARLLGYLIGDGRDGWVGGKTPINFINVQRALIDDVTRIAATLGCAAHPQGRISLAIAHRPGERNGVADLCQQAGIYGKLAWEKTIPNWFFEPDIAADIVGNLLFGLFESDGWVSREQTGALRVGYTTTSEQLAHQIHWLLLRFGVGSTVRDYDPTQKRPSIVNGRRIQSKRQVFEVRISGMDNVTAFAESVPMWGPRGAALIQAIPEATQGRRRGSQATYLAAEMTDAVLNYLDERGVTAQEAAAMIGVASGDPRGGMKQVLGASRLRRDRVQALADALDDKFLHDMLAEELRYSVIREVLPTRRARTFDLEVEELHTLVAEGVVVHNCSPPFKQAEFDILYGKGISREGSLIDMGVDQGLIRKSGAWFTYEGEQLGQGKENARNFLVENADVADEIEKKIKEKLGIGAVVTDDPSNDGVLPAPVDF

[2] = target: T4, Low molecular weight phosphotyrosine protein phosphatase (Homo sapiens, UniProt P24666); type: functional; settings: read-out: IC50_Mean;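 also: Dose-response confirmation assay measuring inhibition of LMPTP enzyme activity by fluorescence intensity read-out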
T4 sequence (P24666 whole entry): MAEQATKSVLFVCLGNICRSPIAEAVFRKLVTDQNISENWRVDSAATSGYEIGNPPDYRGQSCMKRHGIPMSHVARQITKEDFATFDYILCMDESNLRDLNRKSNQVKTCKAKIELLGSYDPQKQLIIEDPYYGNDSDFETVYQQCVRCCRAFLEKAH

[3] = growth inhibition of yeast DHODH-expressing 3D7 parasites – SYBR Green, dry powder samples, dose response (AID 1159570); type: functional, cell-based;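 also: parasite growth measured after 72 hours of compound exposure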
[4] = Dd2 malaria parasite growth inhibition potency – SYBR Green, dry powder samples, dose response (AID 1159566); type: functional, cell-based;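 also: potency for growth inhibition with lower SYBR green DNA signal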
[5] = growth inhibition of PfATP4-mutant resistant parasites – NITD609-resistant line, SYBR Green, dry powder, dose response (AID 1159571); type: functional, cell-based;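 also: parasites synchronized at ring stage by sorbitol before testing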
HEK293 [6] = assay: inhibition of NOD1-driven NF-kB reporter – cell-based, luminescence, uHTS, primary screen (AID 1578); type: functional; settings: Homo sapiens
HEK293 [7] = assay: cells; type: functional, cell-based; settings: Homo sapiens
HEK293 [8] = assay: cells; type: functional, cell-based; settings: Homo sapiens; remark: listed apart in the source
[9] = target: Nucleotide-binding oligomerization domain-containing protein 2 (Homo sapiens, UniProt Q9HC29); assay: inhibition of NOD2-driven NF-kB reporter – cell-based, luminescence, uHTS, HEK293 (AID 1566); type: functional
Nucleotide-binding oligomerization domain-containing protein 2, sequence (Q9HC29 whole entry, the tested form may be a part): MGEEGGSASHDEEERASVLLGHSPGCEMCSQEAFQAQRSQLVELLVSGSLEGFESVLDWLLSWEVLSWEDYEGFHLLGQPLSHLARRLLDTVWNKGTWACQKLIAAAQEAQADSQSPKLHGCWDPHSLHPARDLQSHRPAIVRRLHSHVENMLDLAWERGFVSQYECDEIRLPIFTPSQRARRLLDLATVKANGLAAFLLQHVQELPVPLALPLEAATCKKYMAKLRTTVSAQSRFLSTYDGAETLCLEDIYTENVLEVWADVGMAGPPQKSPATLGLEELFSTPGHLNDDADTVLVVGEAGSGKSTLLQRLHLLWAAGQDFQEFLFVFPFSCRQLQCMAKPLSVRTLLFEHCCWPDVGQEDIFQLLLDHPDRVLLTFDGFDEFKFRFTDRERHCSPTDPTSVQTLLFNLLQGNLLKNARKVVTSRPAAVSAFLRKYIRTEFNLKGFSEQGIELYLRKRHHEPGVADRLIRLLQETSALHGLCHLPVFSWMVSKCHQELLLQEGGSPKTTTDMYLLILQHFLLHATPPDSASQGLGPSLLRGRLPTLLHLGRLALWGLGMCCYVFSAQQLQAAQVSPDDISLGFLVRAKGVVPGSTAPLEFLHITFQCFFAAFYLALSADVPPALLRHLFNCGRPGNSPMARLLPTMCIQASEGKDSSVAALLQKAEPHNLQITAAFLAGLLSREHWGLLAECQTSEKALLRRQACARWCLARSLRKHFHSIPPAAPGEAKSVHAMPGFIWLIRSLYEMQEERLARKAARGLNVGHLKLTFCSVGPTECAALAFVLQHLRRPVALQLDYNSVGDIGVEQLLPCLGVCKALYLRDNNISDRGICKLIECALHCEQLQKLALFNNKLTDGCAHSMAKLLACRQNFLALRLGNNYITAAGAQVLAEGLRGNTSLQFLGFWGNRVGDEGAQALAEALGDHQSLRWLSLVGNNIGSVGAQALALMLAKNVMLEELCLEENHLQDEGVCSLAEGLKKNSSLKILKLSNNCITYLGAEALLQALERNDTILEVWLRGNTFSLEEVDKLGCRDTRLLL

HEK293 [10] = assay: NOD2 signaling inhibitors in MDP-stimulated cells, cell-based, uHTS, luminescence (AID 2001); type: functional; settings: Homo sapiens
HEK293 [11] = assay: cells; type: functional, cell-based; settings: Homo sapiens; remark: listed apart in the source
[12] = blockers of HIV-1 envelope-mediated cell-cell fusion – cherry-pick, dose response (AID 652057); type: functional, cell-based
Paired box protein Pax-8 = Paired box protein Pax-8 (Homo sapiens, UniProt Q06710); assay: PAX8 transcriptional activity inhibition in RMG-I – RMG-I cells, luciferase, cherry-pick, dose response (AID 687027); type: functional, cell-based;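 also: luciferase reporter driven by Pax8 target thyroperoxidase promoter measured by SteadyGlo luminescence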
Paired box protein Pax-8, sequence (Q06710 whole entry, the tested form may be a part): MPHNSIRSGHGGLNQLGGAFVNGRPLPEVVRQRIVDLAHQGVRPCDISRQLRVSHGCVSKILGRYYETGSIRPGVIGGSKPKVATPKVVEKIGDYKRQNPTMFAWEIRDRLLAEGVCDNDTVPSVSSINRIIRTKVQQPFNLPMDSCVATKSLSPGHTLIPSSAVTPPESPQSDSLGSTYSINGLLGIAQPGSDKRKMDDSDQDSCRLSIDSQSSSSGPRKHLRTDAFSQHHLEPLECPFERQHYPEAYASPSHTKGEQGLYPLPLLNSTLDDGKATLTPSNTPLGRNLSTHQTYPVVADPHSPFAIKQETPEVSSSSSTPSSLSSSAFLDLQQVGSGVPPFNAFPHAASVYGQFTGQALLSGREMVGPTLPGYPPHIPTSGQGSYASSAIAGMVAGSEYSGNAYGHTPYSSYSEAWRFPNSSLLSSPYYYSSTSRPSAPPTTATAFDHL

[13] = HIV-1 AD8 envelope cell-cell fusion blockers – cherry-pick, dose response (AID 652062); type: functional, cell-based;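 also: luciferase signal from cell-cell fusion driven by HIV-1 clade B AD8 Env; potency is for inhibitors of fusion seen as a drop in luminescence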
[14] = OVCAR-3 cell viability loss – plate reader, dry powder samples, PAX8 inhibitor project, dose response (AID 743044); type: functional, cell-based
[15] = IGROV1 cell killing – plate reader, dry powder samples, PAX8 inhibitor project, dose response (AID 743043); type: functional, cell-based; settings: IGROV-1
[16] = OVCAR8 cell viability loss – plate reader, dry powder samples, PAX8 project, dose response (AID 743197); type: functional, cell-based; settings: OVCAR-8
[17] = microbe, parasite or virus in culture; type: functional; settings: Mycobacterium tuberculosis
[18] = viability of PTEN-deleted HCT116 cells – cell-based, HCT116 PTEN knockout, dose response (AID 1047); type: functional;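 also: HCT116 colon tumor cells with PTEN knocked out; cells exposed to compound for 60 hours before readout; potency for loss of cell viability measured by luminescence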
[19] = viability of HCT116 lacking mutant beta-catenin – cell-based, human colon tumor, dose response (AID 1045); type: functional;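 also: HCT116 colon tumor cells with beta catenin knocked out; cells exposed to compound for 60 hours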
[20] = reduction of Shn3 3'UTR-driven luciferase in osteoblasts – cell-based, Clone20 osteoblasts, firefly luciferase, cherry-picked, dose response (AID 624132); type: functional;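 also: firefly luciferase luminescence from reporter carrying the Shn3 3'UTR in osteoblasts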
[21] = non-specific 3'UTR reporter inhibition in Clone20-Shn3RL – cell-based, Renilla luciferase, cherry-picked, counter-screen for Shn3 inhibitor project, dose response (AID 624133); type: functional
[22] = Luminescence Cell-Based Dose Retest to Confirm Inhibitors of Cancer Stem Cells. [Related pubchem assays (depositor defined):AID2717, AID2721]; type: functional, Homo sapiens; settings: Homo sapiens
Vero = assay: viability of Vero cells under compound – cytotoxicity control for flavivirus capping enzyme inhibitors (AID 588742); type: functional; settings: Chlorocebus sabaeus
Genome polyprotein = Genome polyprotein (dengue virus type 2, UniProt P29990); assay: flavivirus cap methylation enzyme inhibition – biochemical, confirmation dose response, primary screen (AID 588689); type: functional
Genome polyprotein, sequence (P29990 2492-3391 limits assumed): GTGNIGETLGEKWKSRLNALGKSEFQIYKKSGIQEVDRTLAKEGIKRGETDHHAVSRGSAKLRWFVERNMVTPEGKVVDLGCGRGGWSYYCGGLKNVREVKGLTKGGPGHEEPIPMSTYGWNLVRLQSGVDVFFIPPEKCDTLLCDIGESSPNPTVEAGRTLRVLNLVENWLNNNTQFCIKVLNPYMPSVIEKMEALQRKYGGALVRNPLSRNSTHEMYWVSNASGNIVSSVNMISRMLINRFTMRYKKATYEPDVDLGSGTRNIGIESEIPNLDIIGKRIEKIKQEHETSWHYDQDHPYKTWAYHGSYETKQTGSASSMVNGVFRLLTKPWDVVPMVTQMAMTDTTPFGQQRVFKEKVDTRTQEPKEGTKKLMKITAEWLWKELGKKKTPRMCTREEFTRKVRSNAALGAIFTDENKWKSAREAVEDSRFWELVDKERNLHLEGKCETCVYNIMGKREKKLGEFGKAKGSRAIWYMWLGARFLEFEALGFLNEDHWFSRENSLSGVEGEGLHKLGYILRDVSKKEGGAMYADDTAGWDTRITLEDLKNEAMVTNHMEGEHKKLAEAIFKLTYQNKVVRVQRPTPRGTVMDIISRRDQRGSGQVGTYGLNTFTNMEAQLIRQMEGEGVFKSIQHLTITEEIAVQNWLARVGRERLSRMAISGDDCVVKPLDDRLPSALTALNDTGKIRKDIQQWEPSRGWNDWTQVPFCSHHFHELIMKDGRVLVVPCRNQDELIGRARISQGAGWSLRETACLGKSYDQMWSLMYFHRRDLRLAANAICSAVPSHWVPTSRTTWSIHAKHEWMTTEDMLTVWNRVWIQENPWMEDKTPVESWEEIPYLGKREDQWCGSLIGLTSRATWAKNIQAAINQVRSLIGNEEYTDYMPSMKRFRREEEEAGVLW

Compound: Cc1ccc(S(=O)(=O)Nc2c(O)ccc3ccccc23)cc1
- IC50 (Hexokinase HKDC1): 16.1 µM (active)
- AC50 [1]: 8.03 µM (active)
- EC50 (Protein RecA): 0.939 µM (active)

Compound: CCn1cc(C(=O)O)c(=O)c2cc(F)c(N3CCN(C(=S)NC(=O)c4cccc(C)c4)CC3)cc21
- IC50 [2]: 2.74 µM (active)

Compound: CCn1cc(C(=O)O)c(=O)c2cc(F)c(N3CCN(C(=S)NC(=O)c4ccc(Br)cc4)CC3)cc21
- IC50 [2]: 3.17 µM (active)

Compound: OC[C@H]1[C@H](c2ccccc2)C2(CN(Cc3ccccc3F)C2)N1Cc1ccccc1F
- AC50 [3]: 1.1 µM (active)
- AC50 [4]: 0.542 µM (active)
- AC50 [5]: 1.15 µM (active)

Compound: NC(=O)c1c(NC(=O)C(=O)N2CCOCC2)sc2c1CCCC2
- EC50 (HEK293 [6]): > 20 µM (inactive)
- IC50 (HEK293 [7]): > 20 µM (inactive)
- IC50 (HEK293 [8]): > 20 µM (inactive)
- EC50 [9]: > 20 µM (inactive)
- IC50 (HEK293 [10]): > 20 µM (inactive)
- IC50 (HEK293 [11]): > 20 µM (inactive)

Compound: Cc1noc(C)c1S(=O)(=O)Nc1ccc2c(c1)CC(=O)N([C@@H](C)CO)C[C@@H](C)[C@H](CN(C)Cc1ccc(Cl)c(Cl)c1)O2
- AC50 [12]: 10.9 µM (active)
- AC50 (Paired box protein Pax-8): 1.19 µM (active)
- AC50 [13]: 1.42 µM (active)
- AC50 [14]: 41.1 µM (active)
- AC50 [15]: 12.6 µM (active)
- AC50 [16]: 21.1 µM (active)

Compound: O=C(Nc1ccccc1-c1nc2ccccc2s1)C1=COCCO1
- IC50 [2]: 11.7 µM (active)

Compound: C[C@H](CO)N1C[C@H](C)[C@@H](CN(C)Cc2ccc(-c3ccccc3)cc2)Oc2ccc(NS(=O)(=O)c3ccc(F)cc3)cc2CC1=O
- AC50 (Paired box protein Pax-8): 8.82 µM (active)
- AC50 [14]: 29.7 µM (active)
- AC50 [15]: 27.8 µM (active)
- AC50 [16]: 55.8 µM (active)

Compound: O=C1c2ccccc2-c2onc3ccc(Oc4ccccc4)c1c23
- CC50 [17]: 9.25 µM (active)
- EC50 [18]: 6.21 µM (active)
- EC50 [19]: 6.7 µM (active)
- IC50 (Hexokinase HKDC1): 70.7 µM (inactive)
- AC50 [1]: 1.38 µM (active)
- EC50 (Protein RecA): 0.452 µM (active)

Compound: Cc1nc(SCCC(=O)O)c2cc(-c3ccccc3)sc2n1
- EC50 (HEK293 [6]): > 20 µM (inactive)
- IC50 (HEK293 [7]): 4.5 µM (active)
- IC50 (HEK293 [8]): > 20 µM (inactive)
- EC50 [9]: > 20 µM (inactive)
- IC50 (HEK293 [10]): > 20 µM (inactive)
- IC50 (HEK293 [11]): > 20 µM (inactive)

Compound: COc1cc(OC)c(OC)cc1/C=C1\CC(C)C/C(=C\c2cc(OC)c(OC)cc2OC)C1=O (stereo unspecified)
- EC50 (HEK293 [6]): 6.38 µM (active)
- IC50 (HEK293 [7]): 5.7 µM (active)
- IC50 (HEK293 [8]): 15.7 µM (active)
- EC50 [9]: 7.31 µM (active)
- IC50 (HEK293 [10]): 6.92 µM (active)
- IC50 (HEK293 [11]): > 20 µM (inactive)
- AC50 [20]: 3.22 µM (active)
- AC50 [21]: 5.08 µM (active)

Compound: COc1cc(C2c3c([nH]c(=O)[nH]c3=O)Nc3ccc4ccccc4c32)cc(OC)c1OC (stereo unspecified)
- IC50 (Hexokinase HKDC1): 15.2 µM (active)

Compound: Cc1ccc(S(=O)(=O)Nc2ccccc2-c2ccccc2NS(=O)(=O)c2ccc(C)cc2)cc1
- EC50 (HEK293 [6]): 4.99 µM (active)
- IC50 (HEK293 [7]): 11.8 µM (active)
- IC50 (HEK293 [8]): > 20 µM (inactive)
- EC50 [9]: 11.5 µM (active)
- IC50 (HEK293 [10]): 10 µM (inactive)
- IC50 (HEK293 [11]): > 20 µM (inactive)
- AC50 [22]: 6.86 µM (active)
- CC50 (Vero): > 40 µM (active)
- IC50 (Genome polyprotein): 54.8 µM (active)

Compound: CCOC(=O)CSc1nc2ccc(C)cc2n2cnnc12
- IC50 (Hexokinase HKDC1): 9.55 µM (active)
